Measured values from patent publication US20040038428A1, “Protein microarrays” (priority 2000, published 2004).
Each block holds one molecule with its values, some of them ahead of it. No end group written: not given here.

How the values were obtained:
FKBP12 = FKBP12 (Homo sapiens, UniProt P62942); conditions: read-out: dissociation constants for FKBP12; cited from earlier work
p42 MAP kinase (Erk2) = target: T1, p42 MAP kinase (Erk2) (Mus musculus, UniProt P63085); assay: kinase substrate screen on BSA-NHS slides with 33P-γ-ATP, Erk2; assay type: biochemical; conditions: slide incubated with Erk2
T1 construct: purchased New England Biolabs (Beverly, Mass.)
T1 sequence (P63085 2-358 limits assumed): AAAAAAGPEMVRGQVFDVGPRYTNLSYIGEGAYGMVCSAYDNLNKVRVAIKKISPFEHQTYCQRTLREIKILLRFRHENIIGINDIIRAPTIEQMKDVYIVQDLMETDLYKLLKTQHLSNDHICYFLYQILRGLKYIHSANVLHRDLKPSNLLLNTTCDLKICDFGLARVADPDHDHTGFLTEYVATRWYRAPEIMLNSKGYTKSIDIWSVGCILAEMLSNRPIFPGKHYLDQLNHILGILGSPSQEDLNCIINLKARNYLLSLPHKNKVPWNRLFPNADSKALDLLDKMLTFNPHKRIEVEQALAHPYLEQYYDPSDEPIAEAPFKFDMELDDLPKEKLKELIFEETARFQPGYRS
Method: (§1) To give but one example, most signal transduction networks are composed of numerous kinases and the proteins that they phosphorylate. Protein microarrays offer an ideal system for the rapid and parallel identification of the substrates of protein kinases. A microarray of proteins can be incubated with a purified kinase in the presence of ATP, and the substrates identified by detecting their phosphorylation. In but one exemplary system, three different kinase/substrate pairs were chosen: cAMP-dependent protein kinase (PKA) and “Kemptide” (a peptide substrate for PKA) (Kemp et al. J. Biol. Chem. 252:4888-4894, 1977; incorporated herein by reference); casein kinase II (CKII) and protein phosphatase inhibitor 2 (I-2) (DePaoli-Roach J. Biol. Chem. 259:12144-12152, 1984; incorporated herein by reference); and p42 MAP kinase (Erk2) and Elk1 (Marais et al. Cell 73:381-393, 1993; incorporated herein by reference). […] Following a three-hour incubation, each slide was quenched with glycine and incubated with a different kinase in the presence of ^33P-γ-ATP (FIG. 3). […]
(§2) The slide in FIG. 3A was incubated with PKA. […] Since isotopic […] is known to be quantitative, the best substrates in a library of peptides can be readily identified. […]
(§3) For FIG. 3, the proteins were spotted on BSA-NHS slides using a GMS 417 Arrayer. […] The slides were then ready for further processing (see below). […]

[1] = tested on: 5-helix (portion of the HIV protein gp41); conditions: rank among the three peptides; cited from earlier work
[2] = target: T2, cAMP-dependent protein kinase (PKA) (Mus musculus, UniProt P05132); assay: kinase substrate screen on BSA-NHS slides with 33P-γ-ATP, PKA; assay type: biochemical; conditions: slide incubated with PKA
T2 construct: purchased New England Biolabs (Beverly, Mass.)
Method: as §1, §2, §3

casein kinase II (CKII) = target: T3, casein kinase II (CKII) (Homo sapiens, UniProt P68400); assay: kinase substrate screen on BSA-NHS slides with 33P-γ-ATP, CKII; assay type: biochemical; conditions: slide incubated with CKII
T3 construct: purchased New England Biolabs (Beverly, Mass.)
T3 sequence (P68400 whole entry): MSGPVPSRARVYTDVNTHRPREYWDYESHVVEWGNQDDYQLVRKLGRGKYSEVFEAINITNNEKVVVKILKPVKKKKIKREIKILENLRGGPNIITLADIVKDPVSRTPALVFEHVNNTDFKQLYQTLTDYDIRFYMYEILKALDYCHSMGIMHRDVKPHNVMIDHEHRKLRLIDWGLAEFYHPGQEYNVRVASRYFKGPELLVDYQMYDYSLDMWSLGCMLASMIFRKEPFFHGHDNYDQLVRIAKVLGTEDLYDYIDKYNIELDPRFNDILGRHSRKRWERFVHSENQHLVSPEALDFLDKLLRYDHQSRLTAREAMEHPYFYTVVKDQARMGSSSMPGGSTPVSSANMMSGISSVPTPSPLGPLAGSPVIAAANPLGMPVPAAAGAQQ
T3 sequence (P67870 whole entry partner): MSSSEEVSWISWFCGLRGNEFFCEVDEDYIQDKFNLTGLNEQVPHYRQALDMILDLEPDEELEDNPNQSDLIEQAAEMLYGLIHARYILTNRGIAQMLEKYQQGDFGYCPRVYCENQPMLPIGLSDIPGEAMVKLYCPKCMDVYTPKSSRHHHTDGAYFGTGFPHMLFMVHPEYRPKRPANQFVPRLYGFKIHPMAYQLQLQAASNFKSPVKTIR
Method: as §1, §2, §3

[3] = target: T4, p50 (of the NFκB complex) (Homo sapiens, UniProt P19838); assay: protein microarray: protein-protein interaction, p50 spots; assay type: binding; conditions: probe 0.1 μg/ml
T4 construct: p50 (of the NFκB complex) and IκBα
T4 sequence (P19838 1-433 limits assumed): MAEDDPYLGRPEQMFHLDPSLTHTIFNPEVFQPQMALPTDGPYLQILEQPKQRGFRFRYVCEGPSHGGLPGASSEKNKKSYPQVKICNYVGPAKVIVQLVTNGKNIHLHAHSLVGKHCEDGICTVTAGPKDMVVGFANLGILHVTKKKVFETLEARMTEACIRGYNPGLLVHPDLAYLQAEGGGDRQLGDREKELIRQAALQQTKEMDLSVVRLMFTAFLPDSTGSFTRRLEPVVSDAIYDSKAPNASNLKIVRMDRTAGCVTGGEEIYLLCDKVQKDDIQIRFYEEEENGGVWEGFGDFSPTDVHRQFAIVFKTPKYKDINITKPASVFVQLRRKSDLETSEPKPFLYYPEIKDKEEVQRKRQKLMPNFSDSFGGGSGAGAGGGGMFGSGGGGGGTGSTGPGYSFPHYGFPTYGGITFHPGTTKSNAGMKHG
Text: Arraying Proteins on Glass Slides.
Screening for Protein-Protein Interactions.

FKBP12, sequence (P62942 whole entry): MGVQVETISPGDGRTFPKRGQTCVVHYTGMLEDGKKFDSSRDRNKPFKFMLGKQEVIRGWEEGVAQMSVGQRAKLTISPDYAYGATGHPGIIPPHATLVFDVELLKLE

Molecule: COc1ccc(CC[C@@H](OC(=O)[C@@H]2CCCCN2C(=O)Cc2ccccc2)c2cccc(OCC(=O)O)c2)cc1OC [Compound 3c]
Kd (FKBP12): 2.6 µM

Molecule: GGHTTWMEADREINNYTSLIHSLIEESQNQQEKNEQELL [JN-DCC2, peptide ligand for 5-helix]
relative affinity for 5-helix [1]: lowest affinity

Molecule: GGHTTWMELDREINNYTSLIHSLIEESQNQQEKNEQELL [JN-DCC1, peptide ligand for 5-helix]
relative affinity for 5-helix [1]: second highest affinity

Molecule: GGHTTWMEWDREINNYTSLIHSLIEESQNQQEKNEQELLGGHHHHHH [Compound C37-H6, peptide ligand for 5-helix]
relative affinity for 5-helix [1]: highest affinity

More lines, now with the values ahead:

phosphorylation of spotted substrate (p42 MAP kinase (Erk2)): phosphorylated
Molecule: Elk1: protein substrate of p42 MAP kinase (Erk2)

phosphorylation of spotted substrate [2]: phosphorylated
Molecule: LRRASLG [Kemptide]

phosphorylation of spotted substrate (casein kinase II (CKII)): phosphorylated
B1: I-2: protein phosphatase inhibitor 2, substrate of casein kinase II (protein, UniProt P41236 2-205, looked up)
Protein phosphatase inhibitor …: AASTASHRPIKGILKNKTSTTSSMVASAEQPRGNVDEELSKKSQKWDEMNILATYHPADKDYGLMKIDEPSTPYHSMMGDDEDACSDTEATEAMAPDILARKLAAAEGLEPKYRIQEQESSGEEDSDLSPEEREKKRQFEMKRKLHYNEGLNIKLARQLISKDLHDDDEDEEMLETADGESMNTEESNQGSTPSDQQQNKLRSS

localization of Cy3 fluorescence on array of protein G, p50 and GST-FRB [3]: localized to the p50-containing spots
B2: Cy3-conjugated IκBα: IκBα labeled with Cy3 (protein, UniProt P25963 1-317, looked up)
NF-kappa-B inhibitor alpha: MFQAAERPQEWAMEGPRDGLKKERLLDDRHDSGLDSMKDEEYEQMVKELQEIRLEPQEVPRGSEPWKQQLTEDGDSFLHLAIIHEEKALTMEVIRQVKGDLAFLNFQNNLQQTPLHLAVITNQPEIAEALLGAGCDPELRDFRGNTPLHLACEQGCLASVGVLTQSCTTPHLHSILKATNYNGHTCLHLASIHGYLGIVELLVSLGADVNAQEPCNGRTALHLAVDLQNPDLVSLLLKCGADVNRVTYQGYSPYQLTWGRPSTRIQQQLGQLTLENLQMLPESEDEESYDTESEFTEFTEDELPYDDCVFGGQRLTL
modifications: Cy3 label
